Results published in patent US8507557B2, “Potentiators of insulin secretion” (Wisconsin Alumni Research Foundation, priority 2003, dated 2013).

Key:
β cells = conditions: without affecting glucose metabolism; cited from earlier work
pancreatic β cells = test: Insulin secretion from pancreatic β cells with Ca2+ channel, α2-adrenergic and KATP modulators; conditions: for effect on insulin secretion caused by glucose, KIC, αKG or DPD: α2-adrenergic agonists; for effect on insulin secretion elicited by glyburide: in the presence of glyburide
Procedure: The physiological relevance of insulin secretion from pancreatic β cells elicited by αKG was evaluated.
Possible targets for the segretagogue action of αKG were examined by reevaluating targets implicated for KIC-dependent increases in insulin secretion, since the effects of KIC are likely exerted through transamination that yields αKG. […] To biochemically test this hypothesis the inventors used known drugs to modulate KATP and then determined whether αKG and DPD could still affect insulin secretion.

[1] = as reported in Diabetes Care 25:1271 (2002); cited from earlier work
Ins-1 cell = Ins-1 cell insulin secretion assay, preliminary SAR study in high glucose (FIG. 1); assay type: cell-based, rat; conditions: presence of high glucose; Ins-1 cell assay
Procedure: The ability of various structurally-related compounds to alter insulin secretion in the presence of high glucose was tested in a preliminary structure-activity relationship (SAR) study to elucidate the molecular structures relevant to the insulin segretagogue potential of DPD and other αKG analogs. The compounds tested, shown in FIG. 1, are presented in order of decreasing ability to secrete insulin in an Ins-1 cell assay of the type described below in the Working Example. Each tested compound is commercially available and all were purchased from Sigma-Aldrich. Each compound contained two carboxylate groups. Variables evaluated in this study included the relative position of the carboxylate groups to one another, as well as the presence or absence of a nitrogen or sulfur group, additional R-groups, and esterified carboxy groups.

[2] = system: hyperexcitable Newgard Ins-1 cells; conditions: low (3 mM) or high (15 mM) glucose; 2 hours at 3 mM glucose with compound, then 2 hours
Procedure: The cells were incubated at 3 mM glucose with the indicated concentrations of either αKG or the DPD analog for 2 hours. Then, the cells were incubated for an additional 2 hours in either 3 or 15 mM glucose.

rat Ins-1 beta cell line = conditions: rat Ins-1 cells; effect not as dramatic as in responsive cell line

For `O=c1c(-c2ccc(O)cc2)coc2cc(O)cc(O)c12` [genistein], the “effect on KIC-stimulated insulin release” value (β cells) is given as “inhibited”.
For `Clc1cccc(Cl)c1N=C1NCCN1` [clonidine], the “effect on insulin secretion caused by glucose, KIC, αKG or DPD” value (pancreatic β cells) was “greatly suppressed”.
In the case of `CC(C)CC(=O)C(=O)O` [KIC, α-ketoisocaproic acid], the “effect on insulin secretion elicited by glyburide” value (“effect … by glyburide” below) (pancreatic β cells) is reported as “augmented”.
In the case of `Cc1cnc(C(=O)NCCc2ccc(S(=O)(=O)NC(=O)NC3CCCCC3)cc2)cn1` [glipizide], the increase in insulin [1] is given as 54%.
With `CCOC(=O)c1ccnc(C(=O)OCC)c1` [DPD, 2,4-diethyl pyridine dicarboxylate] the “potency on insulin secretion relative to αKG” value (pancreatic β cells) was “extremely potent relative to αKG”, the “effect … by glyburide” value (pancreatic β cells) was “augmented” and the insulin secretion (Ins-1 cell) was about 14%. For the same compound, the “effect upon insulin secretion (fractional insulin release)” value [2] was “marked positive effect” and the “effect on insulin secretion (fractional insulin release)” value (rat Ins-1 beta cell line) was “increase in insulin secretion”.
For `O=C(O)CCC(=O)C(=O)O` [αKG, α-ketoglutarate], the “effect … by glyburide” value (pancreatic β cells) was “augmented”.
With `CNC[C@H](O)c1ccc(O)c(O)c1` [epinephrine] the “effect on insulin secretion caused by glucose, KIC, αKG or DPD” value (pancreatic β cells) was “greatly suppressed”.
For `N#C/C(=C\c1ccc(O)c(O)c1)C(N)=S` [tyrphostin A47], the “effect on KIC-stimulated insulin release” value (β cells) is listed as “inhibited”.
For `CCOc1cc(CC(=O)N[C@@H](CC(C)C)c2ccccc2N2CCCCC2)ccc1C(=O)O` [repaglinide], the increase in insulin [1] is given as 47%.
For `COc1ccc(Cl)cc1C(=O)NCCc1ccc(S(=O)(=O)NC(=O)NC2CCCCC2)cc1` [glyburide], the insulin secretion elicited (pancreatic β cells; KATP antagonist) was “elicits an insulin secretion”.
For `CC1=NS(=O)(=O)c2cc(Cl)ccc2N1` [Diazoxide], the “effect on ability of αKG, DPD and KIC to promote insulin release” value (pancreatic β cells; KATP agonist) was “completely suppresses”.
